# From US20120178815A1, “Compositions of (-)-E-10-OH-NT and Methods for Their Synthesis and Use” (Adolor Corporation, priority 2007, published 2012)
# pIC50, pKi: −log10 of the molar value. Where two headings read alike, the source gives them in different places.
# Experiments:
# α1b adrenergic receptor = molecular target: T1, α1b adrenergic receptor (Homo sapiens, UniProt P35368); assay: α1b adrenergic receptor binding, [3H]prazocine
# T1 construct: expressed in transfected cells; host or cells: CHO cells (membranes)
# T1 sequence (P35368 1-520): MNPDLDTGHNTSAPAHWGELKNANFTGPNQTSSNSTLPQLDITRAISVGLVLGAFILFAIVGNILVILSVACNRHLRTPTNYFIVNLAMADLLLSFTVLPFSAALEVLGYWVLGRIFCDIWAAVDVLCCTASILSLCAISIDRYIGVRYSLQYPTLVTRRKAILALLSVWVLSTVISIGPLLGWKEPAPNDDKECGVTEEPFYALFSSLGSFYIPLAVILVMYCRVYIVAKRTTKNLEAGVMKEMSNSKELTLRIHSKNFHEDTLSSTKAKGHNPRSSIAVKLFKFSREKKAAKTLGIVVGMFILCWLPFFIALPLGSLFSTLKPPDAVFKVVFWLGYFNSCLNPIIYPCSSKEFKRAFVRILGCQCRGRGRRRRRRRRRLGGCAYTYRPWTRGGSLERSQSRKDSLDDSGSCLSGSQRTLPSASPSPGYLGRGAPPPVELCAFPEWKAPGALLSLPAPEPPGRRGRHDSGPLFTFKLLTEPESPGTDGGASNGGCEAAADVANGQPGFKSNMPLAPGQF
# Method: (§1) Affinity for the α1b adrenergic receptor was tested using membranes prepared from Chinese hamster ovary (CHO) cells heterologously expressing the cloned human receptor that were incubated with [^3H]prazocine (0.15 nM) in the presence of various concentrations of test compounds for 1 hour at 22° C. Nonspecific binding was determined in the presence of 10 μM phentolamine. Bound radioactivity was determined by scintillation spectroscopy.
# CYP2C19 = molecular target: T2, CYP2C19 (Homo sapiens, UniProt P33261); assay: CYP2C19 inhibition, DBF substrate; format: in vitro ADME; details: average of six replicate experiments; for inhibition at 10 µM: human, microsomes containing human recombinant CYP2C19, probe dibenzylfluorescein (DBF), 10 μM test compound, read-out: Inhibition of CYPD2C19, % inhib. at 10 μM; for pIC50: 95% confidence limits in parentheses, read-out: Inhibition of CYPD2C19, IC50
# T2 construct: purchased BD Biosciences (San Jose, Calif.)
# Method: CYP2C19 activity was measured using dibezylflourescein (DBF) as substrate. The source of enzyme was microsomes containing human recombinant CYP2C19 obtained from BD Biosciences (San Jose, Calif.). Conversion of DBF to fluorescein was measured using a PerkinElmer Fusion with a 485 nm excitation filter and a 535 nm emission filter.
# [1] = test system: FCA-induced mechanical hyperalgesia in rats; assay: Rat FCA-induced mechanical hyperalgesia assay (paw pressure threshold); format: in vivo; details: for antihyperalgesia (% AH): 1 hour after treatment; for antihyperalgesia (% AH) / antihyperalgesic activity (% AH): 24 h FCA-treated rats; for antihyperalgesic activity (% AH): 60 mg/kg IP; for antihyperalgesic activity (% AH) / ED50 for reversal of mechanical hyperalgesia: 1 h posttreatment; for ED50 for reversal of mechanical hyperalgesia: response at 60 mg/kg IP taken as maximal response (100%)
# Method: Protocol. […] Dosage amounts are based on the amount of free base. For the assay, the methods of DeHaven-Hudkins et al., 1999 were used to determine mechanical hyperalgesia in rats 24 hours after intraplantar administration of 150 μL Freund's Complete Adjuvant (FCA). To determine paw pressure thresholds, the rats were lightly restrained in a gauze wrap and pressure was applied to the dorsal surface of the inflamed and uninflamed paw with a conical piston using a pressure analgesia apparatus (Stoelting Instruments, Wood Dale, Ill.). The paw pressure threshold was defined as the amount of force (in grams) required to elicit an escape response using a cutoff value of 250 grams.
# Paw pressure thresholds were measured 1 h posttreatment.
# Protocol. […] For comparison, sterile water vehicle was tested as a negative control. The methods of DeHaven-Hudkins et al., 1999 were used to determine mechanical hyperalgesia in rats 24 hours after intraplantar administration of 150 μL Freund's Complete Adjuvant (FCA). To determine paw pressure thresholds, the rats were lightly restrained in a gauze wrap and pressure was applied to the dorsal surface of the inflamed and uninflamed paw with a conical piston using a pressure analgesia apparatus (Stoelting Instruments, Wood Dale, Ill.). The paw pressure threshold was defined as the amount of force (in grams) required to elicit an escape response using a cutoff value of 250 grams.
# Paw pressure thresholds were determined 1, 2, or 4 hours after administration using the methods disclosed in Examples 5 and 18.
# Accordingly, rats were treated with sterile water vehicle, 30, or 60 mg/kg IP twenty-four hours after administration of FCA.
# α2a adrenergic receptor = molecular target: T3, α2a adrenergic receptor (Homo sapiens, UniProt P08913); assay: α2a adrenergic receptor binding, [3H]RX821002; details: for inhibition at 10 µM: read-out: α2a adrenergic receptor, % inhib. at 10 μM
# T3 construct: expressed in transfected cells; host or cells: CHO cells
# T3 sequence (P08913 1-465): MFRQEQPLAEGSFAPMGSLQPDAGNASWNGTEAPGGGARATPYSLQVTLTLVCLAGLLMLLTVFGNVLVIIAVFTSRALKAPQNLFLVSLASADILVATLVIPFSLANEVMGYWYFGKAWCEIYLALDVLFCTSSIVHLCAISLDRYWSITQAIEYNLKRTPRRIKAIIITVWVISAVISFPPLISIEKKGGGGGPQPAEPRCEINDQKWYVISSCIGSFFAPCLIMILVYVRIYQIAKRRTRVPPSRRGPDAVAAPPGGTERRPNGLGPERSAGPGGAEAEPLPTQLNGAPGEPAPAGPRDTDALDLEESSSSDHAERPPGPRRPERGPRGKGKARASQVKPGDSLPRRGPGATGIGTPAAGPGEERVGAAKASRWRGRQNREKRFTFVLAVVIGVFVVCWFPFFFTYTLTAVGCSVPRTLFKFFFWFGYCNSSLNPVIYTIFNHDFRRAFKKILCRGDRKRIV
# Method: as §1, with “α2a” for “α1b”, “CHO” for “membranes prepared from Chinese hamster ovary (CHO)”, “[^3H]RX821002 (1.0” for “[^3H]prazocine (0.15”, “100” for “10”, “(−)-epinephrine.” for “phentolamine.”
# [2] = read-out: Affinity at α1b adrenergic receptor, Ki
# T2 sequence (P33261 whole entry): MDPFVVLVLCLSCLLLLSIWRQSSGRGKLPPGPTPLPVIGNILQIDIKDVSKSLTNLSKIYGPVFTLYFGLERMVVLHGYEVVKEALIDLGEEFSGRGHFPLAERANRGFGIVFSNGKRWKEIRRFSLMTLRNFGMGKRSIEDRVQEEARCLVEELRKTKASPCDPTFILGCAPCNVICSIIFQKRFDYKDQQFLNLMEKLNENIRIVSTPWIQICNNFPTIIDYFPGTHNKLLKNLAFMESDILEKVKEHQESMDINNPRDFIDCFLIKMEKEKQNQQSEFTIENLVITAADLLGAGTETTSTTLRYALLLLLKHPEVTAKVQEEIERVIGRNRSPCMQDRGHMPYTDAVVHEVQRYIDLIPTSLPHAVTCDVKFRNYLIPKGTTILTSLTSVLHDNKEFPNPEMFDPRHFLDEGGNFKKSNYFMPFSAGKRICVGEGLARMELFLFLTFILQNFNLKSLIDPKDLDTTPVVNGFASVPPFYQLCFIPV
Compound,pKi (α1b adrenergic receptor; [2]),inhibition at 10 µM (CYP2C19),antihyperalgesia (% AH) ([1]; 30 mg/kg IP),"antihyperalgesic activity, time course ([1]; 30 mg/kg IP, 1, 2, or 4 hours after administration)",antihyperalgesic activity (% AH) [1],inhibition at 10 µM (α2a adrenergic receptor),"antihyperalgesic activity (Example 5) ([1]; 30 mg/kg, i.p.)","antihyperalgesic activity, orally-administered ([1]; oral administration)",ED50 for reversal of mechanical hyperalgesia [1],pIC50 (CYP2C19),"pKi (α2a adrenergic receptor; read-out: Affinity at α2a adrenergic receptor, Ki)",pKi (α1b adrenergic receptor)
CNCC/C=C1\c2ccccc2C[C@H](O)c2ccccc21 (stereo in doubt) [(+)-E-10-OH-NT],6.16,20%,not antihyperalgesic,not antihyperalgesic at any time point tested,40±13 % AH,15%,–,–,–,–,–,–
CNCC/C=C1\c2ccccc2C[C@@H](O)c2ccccc21 (stereo in doubt) [(−)-E-10-OH-NT],5.59,24%,55±7 % AH,–,270±53 % AH,23%,robust antihyperalgesic activity,significant activity,36 mg/kg IP,–,–,–
"CN(C)CCC=C1c2ccccc2CCc2ccccc21 [AT, amitriptyline, reference compound]",8.23,–,–,–,259±39 % AH,–,–,–,38 mg/kg IP,5.46,6.24,–
"CNCCC=C1c2ccccc2CCc2ccccc21 [NT, nortriptyline, reference compound]",–,–,–,–,–,–,–,–,–,5.82,–,7.68
